# Source: US20130203817A1, “Novel Inhibitors of LYN Kinase” (VASSA INFORMATICS, priority 2012, published 2013)
# Legend:
# [1] = test system: mesenchymal breast cancer lines; conditions: at concentrations that inhibit LYN kinase activity; cited from earlier work
# [2] = test system: phosphorylated (activated) LYN; conditions: BT549 cells, Western blot; cited from earlier work
# WNK3(h) = WNK3(h) (Homo sapiens, UniProt Q9BYP7); assay: Millipore kinase profiling, WNK3; format: biochemical; conditions: VI201 at 100 μM
# WNK3(h), sequence (Q9BYP7 whole entry): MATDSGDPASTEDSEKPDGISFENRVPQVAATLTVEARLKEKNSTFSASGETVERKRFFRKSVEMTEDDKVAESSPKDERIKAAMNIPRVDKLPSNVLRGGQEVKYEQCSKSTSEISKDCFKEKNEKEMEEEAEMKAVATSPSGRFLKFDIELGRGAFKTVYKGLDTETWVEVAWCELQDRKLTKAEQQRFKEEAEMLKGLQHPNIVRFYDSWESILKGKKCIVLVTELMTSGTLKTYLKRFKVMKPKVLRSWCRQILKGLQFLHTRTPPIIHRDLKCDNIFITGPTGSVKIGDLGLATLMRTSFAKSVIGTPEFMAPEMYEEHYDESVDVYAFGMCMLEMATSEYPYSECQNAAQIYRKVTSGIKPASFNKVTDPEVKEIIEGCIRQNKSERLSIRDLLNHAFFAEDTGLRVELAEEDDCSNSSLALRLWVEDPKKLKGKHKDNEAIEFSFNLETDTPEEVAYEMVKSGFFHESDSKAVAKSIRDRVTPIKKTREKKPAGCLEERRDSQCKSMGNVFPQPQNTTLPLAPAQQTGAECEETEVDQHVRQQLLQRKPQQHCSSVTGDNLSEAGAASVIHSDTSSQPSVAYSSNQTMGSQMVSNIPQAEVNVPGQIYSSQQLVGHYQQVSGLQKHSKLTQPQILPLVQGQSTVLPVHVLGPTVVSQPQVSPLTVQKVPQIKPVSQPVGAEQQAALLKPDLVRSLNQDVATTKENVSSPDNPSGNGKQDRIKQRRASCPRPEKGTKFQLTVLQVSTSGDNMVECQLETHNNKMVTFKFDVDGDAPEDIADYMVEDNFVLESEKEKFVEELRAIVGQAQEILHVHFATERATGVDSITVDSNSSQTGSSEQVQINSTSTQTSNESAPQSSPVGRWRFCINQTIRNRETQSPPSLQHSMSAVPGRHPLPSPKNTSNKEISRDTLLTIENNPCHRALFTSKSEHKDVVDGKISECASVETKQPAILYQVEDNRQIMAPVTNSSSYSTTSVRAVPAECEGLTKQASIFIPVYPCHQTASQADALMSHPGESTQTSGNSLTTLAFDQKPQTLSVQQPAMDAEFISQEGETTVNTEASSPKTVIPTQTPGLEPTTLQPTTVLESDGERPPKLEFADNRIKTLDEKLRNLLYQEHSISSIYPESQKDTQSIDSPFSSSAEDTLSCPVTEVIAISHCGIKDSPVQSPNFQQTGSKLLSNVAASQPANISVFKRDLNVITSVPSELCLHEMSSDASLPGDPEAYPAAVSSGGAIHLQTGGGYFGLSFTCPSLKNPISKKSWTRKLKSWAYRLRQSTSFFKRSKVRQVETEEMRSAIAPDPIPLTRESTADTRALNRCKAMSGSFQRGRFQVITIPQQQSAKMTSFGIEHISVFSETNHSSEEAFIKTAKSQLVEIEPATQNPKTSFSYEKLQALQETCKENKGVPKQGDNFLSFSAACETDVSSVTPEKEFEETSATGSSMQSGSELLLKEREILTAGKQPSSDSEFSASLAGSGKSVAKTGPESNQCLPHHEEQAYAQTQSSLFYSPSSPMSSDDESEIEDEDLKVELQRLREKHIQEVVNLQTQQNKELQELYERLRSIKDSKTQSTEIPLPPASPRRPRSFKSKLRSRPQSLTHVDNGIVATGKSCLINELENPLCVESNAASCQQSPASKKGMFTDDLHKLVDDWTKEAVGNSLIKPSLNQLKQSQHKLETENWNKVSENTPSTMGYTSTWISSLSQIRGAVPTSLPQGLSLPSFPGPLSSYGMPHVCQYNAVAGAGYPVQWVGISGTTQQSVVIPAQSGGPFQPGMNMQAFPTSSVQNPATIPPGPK
# Procedure: (§1) The three compounds identified in Example 1 were tested for kinase activity at Millipore (Dundee UK). The compounds were shipped as 10 mM stocks in DMSO as per Millipore testing standards. The testing consisted of two initial phases:
# (§2) (a) Profiling against a set of approximately 60 kinases, selected as representative of all kinases and current kinase drug targets, to determine the selectivity of the compounds; and, (b) IC50 testing against EGFR, the kinase target of the initial search template molecule.
# (§3) In particular, compound VI201 inhibited three kinases, in one case restricting the activity to about 20% at 100 μM concentration (Table 1).
# Abl kinase (BCR-Abl) = Abl kinase (BCR-Abl) (Homo sapiens, UniProt P00519); assay: Kinase profiling, Abl; format: biochemical; conditions: VI201 at 100 μM
# Abl kinase (BCR-Abl), sequence (P00519 27-1130 limits assumed): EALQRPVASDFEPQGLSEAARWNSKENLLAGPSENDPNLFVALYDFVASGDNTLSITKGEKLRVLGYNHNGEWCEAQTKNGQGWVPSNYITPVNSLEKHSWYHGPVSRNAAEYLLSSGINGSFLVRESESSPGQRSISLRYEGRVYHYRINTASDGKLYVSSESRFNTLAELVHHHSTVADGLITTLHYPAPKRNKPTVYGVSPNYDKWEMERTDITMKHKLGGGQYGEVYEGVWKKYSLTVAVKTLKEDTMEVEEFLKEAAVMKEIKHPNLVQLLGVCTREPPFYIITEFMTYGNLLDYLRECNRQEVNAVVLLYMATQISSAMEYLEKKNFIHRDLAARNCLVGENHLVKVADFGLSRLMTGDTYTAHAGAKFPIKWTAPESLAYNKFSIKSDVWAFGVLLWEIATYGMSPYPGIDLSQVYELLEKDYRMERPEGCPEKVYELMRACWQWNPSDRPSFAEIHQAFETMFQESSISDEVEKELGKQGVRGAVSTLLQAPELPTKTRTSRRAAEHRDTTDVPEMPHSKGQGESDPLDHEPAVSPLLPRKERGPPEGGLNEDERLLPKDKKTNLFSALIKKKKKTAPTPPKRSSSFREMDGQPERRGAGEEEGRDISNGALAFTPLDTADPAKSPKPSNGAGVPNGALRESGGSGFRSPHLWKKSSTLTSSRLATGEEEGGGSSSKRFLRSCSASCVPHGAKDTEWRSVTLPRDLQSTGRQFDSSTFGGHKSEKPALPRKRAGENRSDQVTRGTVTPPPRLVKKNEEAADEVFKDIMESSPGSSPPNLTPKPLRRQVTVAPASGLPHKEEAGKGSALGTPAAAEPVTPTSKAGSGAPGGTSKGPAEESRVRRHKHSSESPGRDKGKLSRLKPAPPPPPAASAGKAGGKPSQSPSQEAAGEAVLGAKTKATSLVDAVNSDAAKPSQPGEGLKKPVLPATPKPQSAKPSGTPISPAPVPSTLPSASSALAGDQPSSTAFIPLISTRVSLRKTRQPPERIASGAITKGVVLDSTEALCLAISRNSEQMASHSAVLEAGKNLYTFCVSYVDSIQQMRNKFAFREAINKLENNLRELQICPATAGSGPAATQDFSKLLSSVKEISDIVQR
# Procedure: as §1, §2
# GSK3β kinase = GSK3β kinase (Homo sapiens, UniProt P49841); assay: Kinase profiling, GSK3β; format: biochemical; conditions: VI201 at 100 μM
# GSK3β kinase, sequence (P49841 whole entry): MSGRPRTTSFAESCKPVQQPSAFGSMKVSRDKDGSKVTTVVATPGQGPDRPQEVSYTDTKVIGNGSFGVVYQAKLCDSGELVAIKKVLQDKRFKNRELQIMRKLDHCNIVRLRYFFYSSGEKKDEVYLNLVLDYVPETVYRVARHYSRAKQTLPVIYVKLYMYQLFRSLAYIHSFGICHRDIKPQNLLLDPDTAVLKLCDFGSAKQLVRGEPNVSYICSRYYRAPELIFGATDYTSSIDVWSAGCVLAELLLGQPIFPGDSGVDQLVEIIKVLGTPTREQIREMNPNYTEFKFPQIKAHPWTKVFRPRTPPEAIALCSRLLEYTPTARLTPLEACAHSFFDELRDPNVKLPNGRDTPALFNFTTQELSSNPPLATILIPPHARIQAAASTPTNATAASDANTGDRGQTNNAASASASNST
# Procedure: as §1, §2
# Pim-1(h) = Pim-1(h) (Homo sapiens, UniProt P11309); assay: Millipore kinase profiling, Pim-1; format: biochemical; conditions: VI201 at 100 μM
# Pim-1(h), sequence (P11309 whole entry): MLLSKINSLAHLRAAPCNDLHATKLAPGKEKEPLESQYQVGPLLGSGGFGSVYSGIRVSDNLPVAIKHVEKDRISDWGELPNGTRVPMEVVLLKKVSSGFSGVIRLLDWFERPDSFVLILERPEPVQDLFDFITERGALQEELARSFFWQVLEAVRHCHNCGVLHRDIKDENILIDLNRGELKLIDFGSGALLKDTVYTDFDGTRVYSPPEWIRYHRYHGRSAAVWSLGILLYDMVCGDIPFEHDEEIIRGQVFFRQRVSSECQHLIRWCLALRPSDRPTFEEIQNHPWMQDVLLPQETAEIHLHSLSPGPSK
# Procedure: as §1, §2, §3
# Lyn(h) = Lyn(h) (Homo sapiens, UniProt P07948); assay: Millipore kinase profiling, Lyn; format: biochemical; conditions: VI201 at 100 μM
# Lyn(h), sequence (P07948 1-491 isoform P07948-2): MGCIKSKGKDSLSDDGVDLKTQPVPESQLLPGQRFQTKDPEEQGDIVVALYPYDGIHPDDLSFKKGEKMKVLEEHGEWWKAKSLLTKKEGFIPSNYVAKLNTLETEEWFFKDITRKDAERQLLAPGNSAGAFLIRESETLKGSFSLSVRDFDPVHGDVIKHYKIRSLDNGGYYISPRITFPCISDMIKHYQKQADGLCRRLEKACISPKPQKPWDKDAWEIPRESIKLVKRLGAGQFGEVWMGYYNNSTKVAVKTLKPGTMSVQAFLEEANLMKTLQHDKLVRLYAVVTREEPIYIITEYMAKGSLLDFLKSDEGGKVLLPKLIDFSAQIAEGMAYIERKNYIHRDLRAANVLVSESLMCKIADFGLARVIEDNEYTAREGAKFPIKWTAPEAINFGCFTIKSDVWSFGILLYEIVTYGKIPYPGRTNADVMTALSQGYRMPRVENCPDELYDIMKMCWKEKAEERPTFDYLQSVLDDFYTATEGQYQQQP
# Procedure: as §1, §2, §3
Compound,cell invasion [1],cell proliferation [1],phosphorylated (activated) LYN [2],inhibition of WNK3 kinase (WNK3(h)) [%],inhibition of Abl kinase (BCR-Abl) (Abl kinase (BCR-Abl)) [%],inhibition of GSK3β kinase (GSK3β kinase) [%],inhibition of Pim-1 kinase (Pim-1(h)) [%],inhibition of LYN kinase (Lyn(h)) [%]
"Cc1nc(Nc2ncc(C(=O)Nc3c(C)cccc3Cl)s2)cc(N2CCN(CCO)CC2)n1 [Dasatinib, N-(2-chloro-6-methylphenyl)-2-[[6-[4-(2-hydroxyethyl)-1-piperazinyl]-2-methyl-4-pyrimidinyl]amino]-5-thiazole carboxamide]",blocked invasion,not proliferation,decreased phosphorylated (activated) LYN,,,,,
"N-(2,3-dimethylphenyl)-3-(3-(pyridin-2-yl)-1,2,4-thiadiazol-5-yl)propanamide [VI201]",,,,37,5,26,44,82
